Laboratory results published in ChEMBL document CHEMBL1909046, “DrugMatrix in vitro pharmacology data”.

Key:
[1] = target: Tyrosine-protein kinase Lck (Homo sapiens, UniProt P06239); assay: DRUGMATRIX: Protein Tyrosine Kinase, LCK enzyme inhibition (substrate: Poly(Glu:Tyr)); assay type: cell-based, Insect cells; details: Not Active = under 50% inhibition at 10 µM
[2] = target: T1, Alpha-2C adrenergic receptor (Homo sapiens, UniProt P18825); assay: DRUGMATRIX: Adrenergic Alpha-2C radioligand binding (ligand: [3H] MK-912); assay type: cell membranes, Sf9, Membrane
T1 sequence (P18825 whole entry): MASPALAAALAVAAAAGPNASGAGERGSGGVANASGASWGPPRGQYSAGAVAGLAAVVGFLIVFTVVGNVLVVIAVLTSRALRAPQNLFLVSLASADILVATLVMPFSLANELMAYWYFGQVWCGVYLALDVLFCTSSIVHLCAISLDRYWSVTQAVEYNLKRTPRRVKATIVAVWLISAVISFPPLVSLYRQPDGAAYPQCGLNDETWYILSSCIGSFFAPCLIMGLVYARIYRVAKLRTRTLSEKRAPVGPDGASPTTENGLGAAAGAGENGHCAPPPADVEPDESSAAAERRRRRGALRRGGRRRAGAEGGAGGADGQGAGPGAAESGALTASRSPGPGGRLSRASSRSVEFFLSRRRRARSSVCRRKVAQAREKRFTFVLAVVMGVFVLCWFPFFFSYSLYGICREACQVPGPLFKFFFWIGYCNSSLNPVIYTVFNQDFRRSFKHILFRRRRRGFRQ

[3] = target: T2, D(4) dopamine receptor (Homo sapiens, UniProt P21917); assay: DRUGMATRIX: Dopamine D4.2 radioligand binding (ligand: [3H] Spiperone); assay type: cell membranes, CHO-K1, Membrane; details: cho-k1; Not Active = under 50% inhibition at 10 µM
T2 sequence (P21917 whole entry): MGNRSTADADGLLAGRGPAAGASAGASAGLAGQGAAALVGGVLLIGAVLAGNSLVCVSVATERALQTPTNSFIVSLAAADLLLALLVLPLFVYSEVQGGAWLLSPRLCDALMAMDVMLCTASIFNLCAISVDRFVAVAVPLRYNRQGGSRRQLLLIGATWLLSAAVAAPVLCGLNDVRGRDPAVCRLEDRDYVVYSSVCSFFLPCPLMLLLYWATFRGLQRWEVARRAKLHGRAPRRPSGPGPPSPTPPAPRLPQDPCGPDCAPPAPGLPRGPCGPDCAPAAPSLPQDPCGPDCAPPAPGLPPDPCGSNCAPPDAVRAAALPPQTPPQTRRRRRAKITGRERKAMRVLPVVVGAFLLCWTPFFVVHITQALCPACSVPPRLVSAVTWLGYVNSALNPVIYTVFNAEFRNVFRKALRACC

[4] = DRUGMATRIX: Calcium Channel Type L, Phenylalkylamine radioligand binding (ligand: [3H] (-)-Desmethoxyverapamil (D-888)); assay type: cell membranes, Rattus norvegicus, Wistar, Brain, Membrane; details: Not Active = under 50% inhibition at 10 µM
[5] = DRUGMATRIX: Interleukin IL-1 radioligand binding (ligand: [125I] interleukin 1beta); assay type: cell membranes, Membrane; details: nih3t3; Not Active = under 50% inhibition at 10 µM
[6] = target: Melanocortin receptor 4 (Homo sapiens, UniProt P32245); assay type: cell membranes, Membrane; details: hek293; note: in other assays of this panel Not Active means under 50% inhibition at 10 µM
Chain of Melanocortin receptor 4 (P32245 whole entry): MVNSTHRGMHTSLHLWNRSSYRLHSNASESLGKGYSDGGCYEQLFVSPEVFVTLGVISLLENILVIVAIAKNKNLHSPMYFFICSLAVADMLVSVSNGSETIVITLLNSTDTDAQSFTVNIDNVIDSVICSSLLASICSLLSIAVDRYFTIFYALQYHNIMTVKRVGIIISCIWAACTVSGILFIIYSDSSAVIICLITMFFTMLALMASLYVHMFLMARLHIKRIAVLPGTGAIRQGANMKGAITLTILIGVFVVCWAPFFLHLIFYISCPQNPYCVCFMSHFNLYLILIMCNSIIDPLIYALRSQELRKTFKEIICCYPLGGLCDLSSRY

Chain of Tyrosine-protein kinase Lck (P06239 whole entry): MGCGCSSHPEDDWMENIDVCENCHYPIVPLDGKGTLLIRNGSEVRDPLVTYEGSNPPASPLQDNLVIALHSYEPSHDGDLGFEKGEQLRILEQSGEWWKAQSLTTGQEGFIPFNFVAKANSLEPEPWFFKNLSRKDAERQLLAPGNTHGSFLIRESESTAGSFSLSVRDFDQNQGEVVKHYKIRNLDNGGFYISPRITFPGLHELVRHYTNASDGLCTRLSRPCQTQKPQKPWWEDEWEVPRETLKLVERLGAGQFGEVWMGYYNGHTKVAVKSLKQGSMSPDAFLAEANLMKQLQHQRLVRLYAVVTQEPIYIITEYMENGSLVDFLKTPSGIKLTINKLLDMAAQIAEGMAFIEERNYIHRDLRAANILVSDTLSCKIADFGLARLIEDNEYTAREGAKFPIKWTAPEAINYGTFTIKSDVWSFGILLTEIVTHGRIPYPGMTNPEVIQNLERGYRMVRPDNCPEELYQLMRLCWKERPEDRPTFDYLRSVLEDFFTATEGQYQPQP

Row | Compound | IC50 ([1]; insect cells) | IC50 ([2]; sf9) | IC50 [3] | IC50 [4] | Ki [4] | IC50 [5] | Ki [5] | IC50 [6] | IC50 ([1]; read-out: IC50) [nM] | Ki ([1]; insect cells) | Ki ([2]; sf9) | Ki [3] | Ki [6] | IC50 ([2]; read-out: IC50) [nM] | Ki ([2]; read-out: Ki) [nM] | IC50 ([4]; read-out: IC50) [nM] | Ki ([4]; read-out: Ki) [nM]
1 | CC(N)C12CC3CC(CC(C3)C1)C2 (configuration not stated) [RIMANTADINE] | Not Active | Not Active | Not Active | Not Active | Not Active | Not Active | Not Active | Not Active | – | – | – | – | – | – | – | – | –
2 | CC[C@H](C)C(=O)O[C@H]1CCC=C2C=C[C@H](C)[C@H](CC[C@@H]3C[C@@H](O)CC(=O)O3)[C@H]21 [MEVASTATIN] | Not Active | Not Active | Not Active | Not Active | Not Active | Not Active | Not Active | Not Active | – | – | – | – | – | – | – | – | –
3 | O=C(OC[C@H]1O[C@@H](OC(=O)c2cc(O)c(O)c(OC(=O)c3cc(O)c(O)c(O)c3)c2)[C@H](OC(=O)c2cc(O)c(O)c(OC(=O)c3cc(O)c(O)c(O)c3)c2)[C@@H](OC(=O)c2cc(O)c(O)c(OC(=O)c3cc(O)c(O)c(O)c3)c2)[C@@H]1OC(=O)c1cc(O)c(O)c(OC(=O)c2cc(O)c(O)c(O)c2)c1)c1cc(O)c(O)c(OC(=O)c2cc(O)c(O)c(O)c2)c1 [TANNIC ACID] | – | Not Active | Not Active | Not Active | Not Active | Not Active | Not Active | Not Active | 79 | – | – | – | – | – | – | – | –
4 | LEAD(IV) ACETATE | Not Active | Not Active | Not Active | Not Active | Not Active | Not Active | Not Active | Not Active | – | Not Active | Not Active | Not Active | Not Active | – | – | – | –
5 | CO[C@@H]1[C@@H](OC)[C@H](C)[C@@](O)(CC(=O)O)O[C@H]1[C@H](C)[C@H]1O[C@@]2(CC[C@@](C)([C@H]3CC[C@@](C)([C@@H]4O[C@@H]([C@H]5O[C@](C)(O)[C@H](C)C[C@@H]5C)C[C@@H]4O[C@@H]4C[C@H](OC)[C@@H](OC)[C@H](C)O4)O3)O2)C[C@H](O)[C@H]1C.N [MADURAMICIN] | Not Active | Not Active | Not Active | Not Active | Not Active | Not Active | Not Active | Not Active | – | – | – | – | – | – | – | – | –
6 | C[N+]1(C)[C@@H]2C[C@@H](OC(=O)[C@H](CO)c3ccccc3)C[C@H]1[C@@H]1O[C@@H]12.[Br-] [METHSCOPOLAMINE BROMIDE] | Not Active | Not Active | Not Active | Not Active | Not Active | Not Active | Not Active | Not Active | – | – | – | – | – | – | – | – | –
7 | Cc1nnc(NS(=O)(=O)c2ccc(N)cc2)s1 [SULFAMETHIZOLE] | Not Active | Not Active | Not Active | Not Active | Not Active | Not Active | Not Active | Not Active | – | – | – | – | – | – | – | – | –
8 | Cc1ccc(S(=O)(=O)NC(=O)NN2CCCCCC2)cc1 [TOLAZAMIDE] | Not Active | Not Active | Not Active | Not Active | Not Active | Not Active | Not Active | Not Active | – | – | – | – | – | – | – | – | –
9 | CCC(C)(C)C(=O)O[C@H]1C[C@@H](C)C=C2C=C[C@H](C)[C@H](CC[C@@H]3C[C@@H](O)CC(=O)O3)[C@H]21 [SIMVASTATIN] | Not Active | Not Active | Not Active | Not Active | Not Active | Not Active | Not Active | Not Active | – | – | – | – | – | – | – | – | –
10 | Cc1ccnc(NS(=O)(=O)c2ccc(N)cc2)n1 [SULFAMERAZINE] | Not Active | Not Active | Not Active | Not Active | Not Active | Not Active | Not Active | Not Active | – | – | – | – | – | – | – | – | –
11 | OC[C@@H](O)[C@@H](O)[C@H](O)[C@H](O)CO [MANNITOL] | Not Active | Not Active | Not Active | Not Active | Not Active | Not Active | Not Active | Not Active | – | – | – | – | – | – | – | – | –
12 | CCN(CC)N=O [N-NITROSODIETHYLAMINE] | Not Active | Not Active | Not Active | Not Active | Not Active | Not Active | Not Active | Not Active | – | – | – | – | – | – | – | – | –
13 | CC(=O)O[C@]1(C(C)=O)CC[C@H]2[C@@H]3C[C@H](C)C4=CC(=O)CC[C@]4(C)[C@H]3CC[C@@]21C [MEDROXYPROGESTERONE ACETATE] | Not Active | Not Active | Not Active | Not Active | Not Active | Not Active | Not Active | Not Active | – | – | – | – | – | – | – | – | –
14 | CCN1CCCC1CNC(=O)c1cc(S(N)(=O)=O)ccc1OC (configuration not stated) [SULPIRIDE] | Not Active | Not Active | Not Active | Not Active | Not Active | Not Active | Not Active | Not Active | – | – | – | – | – | – | – | – | –
15 | CN1C[C@H](CNC(=O)OCc2ccccc2)C[C@@H]2c3cccc4c3c(cn4C)C[C@H]21 [METERGOLINE] | Not Active | – | Not Active | – | – | Not Active | Not Active | Not Active | – | – | – | – | – | 189 | 27 | 278 | 270
16 | CC(Cl)(Cl)Cl [TRICHLOROETHANE] | Not Active | Not Active | Not Active | Not Active | Not Active | Not Active | Not Active | Not Active | – | – | – | – | – | – | – | – | –
17 | CC1=C(/C=C/C(C)=C/C=C/C(C)=C/C(=O)O)C(C)(C)CCC1 [TRETINOIN] | Not Active | Not Active | Not Active | Not Active | Not Active | Not Active | Not Active | Not Active | – | – | – | – | – | – | – | – | –
18 | C=CCc1ccc2c(c1)OCO2 [SAFROLE] | Not Active | Not Active | Not Active | Not Active | Not Active | Not Active | Not Active | Not Active | – | – | – | – | – | – | – | – | –
19 | C1CCN2C[C@@H]3C[C@@H](CN4CCCC[C@@H]34)[C@H]2C1 [SPARTEINE] | Not Active | Not Active | Not Active | Not Active | Not Active | Not Active | Not Active | Not Active | – | – | – | – | – | – | – | – | –
